Source: patent US10987359B2, “Oxadiazepinone derivatives and methods of treating hepatitis B infections” (priority 2016, dated 2021)

System: HBV
Assay: HBV replication inhibition assay (BDNA assay) in HepG2.2.15 cells
Format: cell-based
Conditions: HBV replication assay (BDNA assay), HepG2.2.15 cells; read-out: DNA EC50
Procedure: HBV replication inhibition by the disclosed compounds were determined in cells infected or transfected with HBV or cells with stably integrated HBV, such as HepG2.2.15 cells (Sells et al. 1987). In this example, HepG2.2.15 cells were maintained in cell culture medium containing 10% fetal bovine serum (FBS), Geneticin, L-glutamine, penicillin and streptomycin. HepG2.2.15 cells were seeded in 96-well plates at a density of 40,000 cells/well and were treated with serially diluted compounds at a final DMSO concentration of 0.5% either alone or in combination by adding drugs in a checker box format. Cells were incubated with compounds for three days, after which medium was removed and fresh medium containing compounds was added to cells and incubated for another three days. At day 6, supernatant was removed and treated with DNase at 37° C. for 60 minutes, followed by enzyme inactivation at 75° C. for 15 minutes. Encapsidated HBV DNA was released from the virions and covalently linked HBV polymerase by incubating in lysis buffer (Affymetrix QS0010) containing 2.5 μg proteinase K at 50° C. for 40 minutes. HBV DNA was denatured by addition of 0.2 M NaOH and detected using a branched DNA (BDNA) QuantiGene assay kit according to manufacturer recommendation (Affymetrix). HBV DNA levels were also quantified using qPCR, based on amplification of encapsidated HBV DNA extraction with QuickExtraction Solution (Epicentre Biotechnologies) and amplification of HBV DNA using HBV specific PCR probes that can hybridize to HBV DNA and a fluorescently labeled probe for quantitation. In addition, cell viability of HepG2.2.15 cells incubated with test compounds alone or in combination was determined by using CellTitre-Glo reagent according to the manufacturer protocol (Promega). The mean background signal from wells containing only culture medium was subtracted from all other samples, and percent inhibition at each compound concentration was calculated by normalizing to signals from HepG2.2.15 cells treated with 0.5% DMSO using equation E1. % inhibition=(DMSOave−Xi)/DMSOave×100% E1: […]
where DMSOave is the mean signal calculated from the wells that were treated with DMSO control (0% inhibition control) and Xi is the signal measured from the individual wells. EC50 values, effective concentrations that achieved 50% inhibitory effect, were determined by non-linear fitting using Graphpad Prism software (San Diego, Calif.) and equation E2: Y=Y min+(Y max−Y min)/(1+10(Log EC50−X)×HillSlope) E2: […]
where Y represents percent inhibition values and X represents the logarithm of compound concentrations.
Selected disclosed compounds were assayed in the HBV replication assay (BDNA assay), as described above, and a representative group of these active compounds is shown in Table 7. […] In Table 7, “A” represents 1<EC50≤100; “B” represents 100<EC50≤500; “C” represents 500<EC50≤1000; and “D” represents EC50>1000.

Compared with `C[C@@H]1Cc2nn3c(c2CN1C(=O)Nc1cc(Br)c(F)cc1F)C(=O)N(C)OC(CO)C3` (stereo in doubt) [Compound 089_E2, (4R*,9R)—N-(5-bromo-2,4-difluorophenyl)-4-(hydroxymethyl)-2,9-dimethyl-1-oxo-1,4,5,8,9,11-hexahydropyrido[4′,3′:3,4]pyrazolo[5,1-d][1,2,5]oxadiazepine-10(2H)-carboxamide], `C[C@@H]1Cc2nn3c(c2CN1C(=O)Nc1cc(Br)c(F)cc1F)C(=O)N(C)OC(CN(C)C)C3` (stereo in doubt) [Compound 100_D1, (4S*,9R)—N-(5-bromo-2,4-difluorophenyl)-4-((dimethylamino)methyl)-2,9-dimethyl-1-oxo-1,4,5,8,9,11-hexahydropyrido[4′,3′:3,4]pyrazolo[5,1-d][1,2,5]oxadiazepine-10(2H)-carboxamide] is higher in EC50: 1 to 100 nM for the first, 100 to 500 nM for the second.

`C[C@@H]1Cc2nn3c(c2CN1C(=O)Nc1cc(Cl)c(F)cc1F)C(=O)N(C)OC(C(=O)N(C)CC(F)F)C3` (stereo in doubt) [Compound 154_D1, (4S*,9R)—N10-(5-chloro-2,4-difluorophenyl)-N4-(2,2-difluoroethyl)-N4,2,9-trimethyl-1-oxo-1,4,5,8,9,11-hexahydropyrido[4′,3′:3,4]pyrazolo[5,1-d][1,2,5]oxadiazepine-4,10(2H)-dicarboxamide] and `CNC(=O)C1Cn2nc3c(c2C(=O)N(C)O1)CN(C(=O)Nc1ccc(F)c(Cl)c1F)[C@H](C)C3` (single isomer, unassigned) [Compound 110_D1, (4S*,9R)—N10-(3-chloro-2,4-difluorophenyl)-N4,2,9-trimethyl-1-oxo-1,4,5,8,9,11-hexahydropyrido[4′,3′:3,4]pyrazolo[5,1-d][1,2,5]oxadiazepine-4,10(2H)-dicarboxamide] fall in the same range of EC50: 500 to 1000 nM for the first, 500 to 1000 nM for the second.

First: C[C@@H]1Cc2nn3c(c2CN1C(=O)Nc1ccnc(Br)c1F)C(=O)N(C)OC(COCC(F)F)C3 (stereo in doubt) [Compound 123_D1, (4S*,9R)—N-(2-bromo-3-fluoropyridin-4-yl)-4-((2,2-difluoroethoxy)methyl)-2,9-dimethyl-1-oxo-1,4,5,8,9,11-hexahydropyrido[4′,3′:3,4]pyrazolo[5,1-d][1,2,5]oxadiazepine-10(2H)-carboxamide]
Second: C[C@@H]1Cc2nn3c(c2CN1C(=O)Nc1ccc(F)c(C(F)(F)F)c1)C(=O)N(C)OC(CNS(C)(=O)=O)C3 (single isomer, unassigned) [Compound 179_D2, (4R*,9R)—N-(4-fluoro-3-(trifluoromethyl)phenyl)-2,9-dimethyl-4-(methylsulfonamidomethyl)-1-oxo-1,4,5,8,9,11-hexahydropyrido[4′,3′:3,4]pyrazolo[5,1-d][1,2,5]oxadiazepine-10(2H)-carboxamide]
The EC50 of the first is higher: 100 to 500 nM for the first, 1 to 100 nM for the second.

Same assay, conditions: Hepatitis B virus, HepG2.2.15, HBV replication assay (BDNA assay), HepG2.2.15 cells; read-out: DNA EC50

`C[C@@H]1Cc2nn3c(c2CN1C(=O)Nc1ccc(F)c(Cl)c1)C(=O)N(C)OCC3` [Compound 075, (9R)—N-(3-chloro-4-fluoro-phenyl)-2,9-dimethyl-1-oxo-5,8,9,11-tetrahydro-4H-pyrido[2,3]pyrazolo[2,4-c][1,2,5]oxadiazepine-10-carboxamide] and `C[C@@H]1Cc2nn3c(c2CN1C(=O)Nc1ccc(F)c(Cl)c1)C(=O)N(C)O[C@H](CO)C3` (stereo in doubt) [Compound 069_E4, (4S*,9R*)—N-(3-chloro-4-fluorophenyl)-4-(hydroxymethyl)-2,9-dimethyl-1-oxo-1,4,5,8,9,11-hexahydropyrido[4′,3′:3,4]pyrazolo[5,1-d][1,2,5]oxadiazepine-10(2H)-carboxamide] fall in the same range of EC50: 1 to 100 nM for the first, 1 to 100 nM for the second.

`C[C@@H]1Cc2nn3c(c2CN1C(=O)Nc1ccc(F)c(C#N)c1)C(=O)N(C)N(CC(F)F)CC3` [Compound 221, (R)—N-(3-Cyano-4-fluorophenyl)-3-(2,2-difluoroethyl)-2,9-dimethyl-1-oxo-1,2,3,4,5,8,9,11-octahydro-10H-pyrido[4′,3′:3,4]pyrazolo[5,1-d][1,2,5]triazepine-10-carboxamide] and `C[C@@H]1Cc2nn3c(c2CN1C(=O)Nc1ccc(F)c(C#N)c1)C(=O)N(C)OC(CN)C3` (single isomer, unassigned) [Compound 115_D1, (4S*,9R)-4-(aminomethyl)-N-(3-cyano-4-fluorophenyl)-2,9-dimethyl-1-oxo-1,4,5,8,9,11-hexahydropyrido[4′,3′:3,4]pyrazolo[5,1-d][1,2,5]oxadiazepine-10(2H)-carboxamide] fall in the same range of EC50: 1 to 100 nM for the first, 1 to 100 nM for the second.

`CCOCC1Cn2nc3c(c2C(=O)N(C)O1)CN(C(=O)Nc1ccc(F)c(Cl)c1)CC3` (centres unmarked) [Compound 101, N-(3-chloro-4-fluoro-phenyl)-4-(ethoxymethyl)-2-methyl-1-oxo-5,8,9,11-tetrahydro-4H-pyrido[2,3]pyrazolo[2,4-d][1,2,5]oxadiazepine-10-carboxamide] and `CCOC(=O)OCC1Cn2nc3c(c2C(=O)N(C)O1)CN(C(=O)Nc1ccc(F)c(Cl)c1)CC3` (centres unmarked) [Compound 056, (10-((3-chloro-4-fluorophenyl)carbamoyl)-2-methyl-1-oxo-1,2,4,5,8,9,10,11-octahydropyrido[4′,3′:3,4]pyrazolo[5,1-d][1,2,5]oxadiazepin-4-yl)methyl ethyl carbonate] fall in the same range of EC50: 1 to 100 nM for the first, 1 to 100 nM for the second.

`CN1N=C(CO)Cn2nc3c(c2C1=O)CN(C(=O)Nc1ccc(F)c(C#N)c1)CC3` [Compound 228, N-(3-cyano-4-fluorophenyl)-4-(hydroxymethyl)-2-methyl-1-oxo-1,2,5,8,9,11-hexahydro-10H-pyrido[4′,3′:3,4]pyrazolo[5,1-d][1,2,5]triazepine-10-carboxamide] and `CN1OC(CO)Cn2nc3c(c2C1=O)CN(C(=O)Nc1cccc(C#N)c1F)CC3` (single isomer, unassigned) [Compound 146_E1, (S*)—N-(3-cyano-2-fluorophenyl)-4-(hydroxymethyl)-2-methyl-1-oxo-1,4,5,8,9,11-hexahydropyrido[4′,3′:3,4]pyrazolo[5,1-d][1,2,5]oxadiazepine-10(2H)-carboxamide] fall in the same range of EC50: 1 to 100 nM for the first, 1 to 100 nM for the second.

First: C[C@@H]1Cc2nn3c(c2CN1C(=O)Nc1cc(Br)c(F)cc1F)C(=O)N(C)OC(CO)C3 (stereo in doubt) [Compound 089_E1, (4S*,9R)—N-(5-bromo-2,4-difluorophenyl)-4-(hydroxymethyl)-2,9-dimethyl-1-oxo-1,4,5,8,9,11-hexahydropyrido[4′,3′:3,4]pyrazolo[5,1-d][1,2,5]oxadiazepine-10(2H)-carboxamide]
Second: CN1OC(CO)Cn2nc3c(c2C1=O)CN(C(=O)Nc1c(F)ccc(Cl)c1F)CC3 (single isomer, unassigned) [Compound 138_E1, (S*)—N-(3-chloro-2,6-difluorophenyl)-4-(hydroxymethyl)-2-methyl-1-oxo-1,4,5,8,9,11-hexahydropyrido[4′,3′:3,4]pyrazolo[5,1-d][1,2,5]oxadiazepine-10(2H)-carboxamide]
The EC50 of the first is lower: 1 to 100 nM for the first, 100 to 500 nM for the second. The first is the more potent here.

`Cc1ccc(C)c(NC(=O)N2CCc3nn4c(c3C2)C(=O)N(C)OC(CO)C4)c1` (centres unmarked) [Compound 016, N-(2,5-dimethylphenyl)-4-(hydroxymethyl)-2-methyl-1-oxo-1,4,5,8,9,11-hexahydropyrido[4′,3′:3,4]pyrazolo[5,1-d][1,2,5]oxadiazepine-10(2H)-carboxamide] and `Cc1ccc(Br)cc1NC(=O)N1CCc2nn3c(c2C1)C(=O)N(C)OC(CO)C3` (centres unmarked) [Compound 017, N-(5-bromo-2-methylphenyl)-4-(hydroxymethyl)-2-methyl-1-oxo-1,4,5,8,9,11-hexahydropyrido[4′,3′:3,4]pyrazolo[5,1-d][1,2,5]oxadiazepine-10(2H)-carboxamide] fall in the same range of EC50: 1 to 100 nM for the first, 1 to 100 nM for the second.

First: CNC(=O)C1Cn2nc3c(c2C(=O)N(C)O1)CN(C(=O)Nc1ccc(F)c(Cl)c1)CC3 (centres unmarked) [Compound 073, N10-(3-chloro-4-fluoro-phenyl)-N4,2-dimethyl-1-oxo-5,8,9,11-tetrahydro-4H-pyrido[2,3]pyrazolo[2,4-d][1,2,5]oxadiazepine-4,10-dicarboxamide]
Second: CN1OC(CNS(=O)(=O)C(F)(F)F)Cn2nc3c(c2C1=O)CN(C(=O)Nc1ccc(F)c(Cl)c1)CC3 (centres unmarked) [Compound 164, N-(3-chloro-4-fluorophenyl)-2-methyl-1-oxo-4-(((trifluoromethyl)sulfonamido)methyl)-1,4,5,8,9,11-hexahydropyrido[4′,3′:3,4]pyrazolo[5,1-d][1,2,5]oxadiazepine-10(2H)-carboxamide]
The EC50 of the first is lower: 1 to 100 nM for the first, 100 to 500 nM for the second.
